Test results taken from ChEMBL document CHEMBL1201862, “PubChem BioAssay data set” (2004).
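Growth conditions: 96-well plates. Treatment: test compound, 48 hours, 5 concentrations. Analysis: linear interpolation between bracketing concentrations; unreached endpoints set to highest concentration. GI50 marks 50% less growth.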 The source made the active and inactive calls. Cut-off read from the data, not from the text of the source: active = GI50 up to about 1.1 µM and inactive = higher.

How the values were obtained:
Assay in all cases: inhibition of tumour cell growth, NCI panel, 48 h
HCC 2998 = tested on: HCC 2998
EKVX = tested on: EKVX
UACC-257 = tested on: UACC-257
MDA-MB-435 = tested on: MDA-MB-435
SF-295 = tested on: SF-295
HCT-116 = tested on: HCT-116
OVCAR-4 = tested on: OVCAR-4
MDA-N = tested on: MDA-N
UACC-62 = tested on: UACC-62
UO-31 = tested on: UO-31
SNB-75 = tested on: SNB-75
SK-MEL-2 = tested on: SK-MEL-2
K562 = tested on: K562
OVCAR-3 = tested on: OVCAR-3
PC-3 = tested on: PC-3
SF-539 = tested on: SF-539
OVCAR-5 = tested on: OVCAR-5
786-0 = tested on: 786-0
RXF 393 = tested on: RXF 393
MOLT-4 = tested on: MOLT-4

Measured: GI50

COc1cccc([C@@H]2CC(=O)c3cc4c(cc3N2)OCO4)c1
inactive: HCC 2998 > 100 µM | EKVX > 100 µM | UACC-257 > 100 µM | MDA-MB-435 71.6 µM | SF-295 > 100 µM | HCT-116 > 100 µM | OVCAR-4 > 100 µM | MDA-N > 100 µM | UACC-62 65.3 µM | UO-31 > 100 µM | SNB-75 86.3 µM | SK-MEL-2 > 100 µM | K562 98.4 µM | OVCAR-3 > 100 µM | PC-3 > 100 µM | SF-539 > 100 µM | OVCAR-5 > 100 µM | 786-0 > 100 µM | RXF 393 > 100 µM

COC(=O)c1cc(-c2ccc(-c3ccc(O)cc3)cc2)cc(-c2ccc(-c3ccc(O)cc3)cc2)c1
inactive: HCC 2998 11.2 µM | EKVX 11.9 µM | MOLT-4 10.4 µM | UACC-257 14.1 µM | MDA-MB-435 10.4 µM | SF-295 6.75 µM | HCT-116 5.64 µM | OVCAR-4 13.5 µM | MDA-N 11 µM | UO-31 11.5 µM | SNB-75 7.74 µM | SK-MEL-2 15.3 µM | K562 4.51 µM | OVCAR-3 12 µM | PC-3 10.8 µM | SF-539 5.33 µM | OVCAR-5 15.7 µM | 786-0 5.98 µM | RXF 393 5.62 µM

CC(=N/N=C/c1ccccn1)/C(C)=N/N=C(C)/C(C)=N/N=C(C)/C(C)=N/N=C(C)/C(C)=N\N=C\c1ccccn1
inactive: HCC 2998 > 100 µM | EKVX > 100 µM | UACC-257 > 100 µM | MDA-MB-435 > 100 µM | SF-295 > 100 µM | HCT-116 > 100 µM | OVCAR-4 > 100 µM | MDA-N > 100 µM | UO-31 > 100 µM | SNB-75 > 100 µM | SK-MEL-2 > 100 µM | K562 > 100 µM | OVCAR-3 > 100 µM | PC-3 > 100 µM | SF-539 > 100 µM | OVCAR-5 > 100 µM | 786-0 > 100 µM | RXF 393 > 100 µM

C=CCn1c(N)c(C#N)c(C#N)c1-c1ccccc1
inactive: HCC 2998 > 100 µM | EKVX 57.7 µM | MOLT-4 > 100 µM | UACC-257 > 100 µM | MDA-MB-435 > 100 µM | SF-295 > 100 µM | OVCAR-4 > 100 µM | MDA-N > 100 µM | UACC-62 > 100 µM | UO-31 > 100 µM | SNB-75 26.2 µM | SK-MEL-2 26.8 µM | K562 > 100 µM | OVCAR-3 > 100 µM | PC-3 > 100 µM | SF-539 > 100 µM | OVCAR-5 > 100 µM | 786-0 > 100 µM | RXF 393 > 100 µM

CCOC(=O)c1c[nH]cc1-c1cn(S(=O)(=O)c2ccccc2)cc1C
inactive: HCC 2998 17.5 µM | EKVX 14.6 µM | MOLT-4 20.4 µM | UACC-257 17.1 µM | MDA-MB-435 > 10 µM | SF-295 33.7 µM | HCT-116 21.6 µM | OVCAR-4 39.4 µM | MDA-N 17.9 µM | UACC-62 15.3 µM | UO-31 27.5 µM | SNB-75 15.3 µM | SK-MEL-2 32.2 µM | K562 19.1 µM | OVCAR-3 18.8 µM | PC-3 18.6 µM | SF-539 21.9 µM | OVCAR-5 52.7 µM | 786-0 37.1 µM | RXF 393 47.1 µM

COC(=O)c1ccccc1CC(Cc1ccc2c(c1)CCC2)C(=O)OC (configuration not stated)
inactive: HCC 2998 > 100 µM | EKVX > 100 µM | MOLT-4 31.8 µM | UACC-257 34.6 µM | MDA-MB-435 66.1 µM | SF-295 > 100 µM | HCT-116 49.1 µM | OVCAR-4 > 100 µM | MDA-N 62.4 µM | UO-31 > 100 µM | SNB-75 98.4 µM | SK-MEL-2 > 100 µM | K562 95.1 µM | OVCAR-3 70 µM | PC-3 93.3 µM | SF-539 > 100 µM | OVCAR-5 > 100 µM | 786-0 > 100 µM | RXF 393 > 100 µM

CN(c1ccc(Cl)cc1)S(=O)(=O)c1cccc([N+](=O)[O-])c1
inactive: HCC 2998 79.1 µM | EKVX 66.5 µM | MOLT-4 17.2 µM | UACC-257 > 100 µM | MDA-MB-435 34.8 µM | SF-295 > 100 µM | HCT-116 34 µM | OVCAR-4 > 100 µM | MDA-N 67.9 µM | UACC-62 39.4 µM | UO-31 39.9 µM | SNB-75 56.5 µM | SK-MEL-2 44.2 µM | K562 26.9 µM | OVCAR-3 55.3 µM | PC-3 14.3 µM | SF-539 66.4 µM | OVCAR-5 87.3 µM | 786-0 > 100 µM | RXF 393 45.4 µM

CCOC(=O)CC1(O)CCCCC1(Sc1ccc(C)cc1)Sc1ccc(C)cc1 (configuration not stated)
inactive: HCC 2998 31.5 µM | EKVX 26.9 µM | MOLT-4 24.9 µM | UACC-257 24.1 µM | MDA-MB-435 33.9 µM | SF-295 41 µM | HCT-116 33.9 µM | OVCAR-4 47.8 µM | MDA-N 35.5 µM | UACC-62 92 µM | UO-31 41.8 µM | SNB-75 27.5 µM | SK-MEL-2 20.5 µM | K562 41.5 µM | OVCAR-3 55.5 µM | PC-3 33.3 µM | SF-539 > 100 µM | OVCAR-5 44.2 µM | 786-0 48.2 µM | RXF 393 42.4 µM

Cc1cc(S(=O)(=O)NC2=NCCCN2)c(S)cc1Cl
inactive: HCC 2998 36.1 µM | EKVX 38.9 µM | UACC-257 37.5 µM | MDA-MB-435 18.3 µM | HCT-116 31.8 µM | OVCAR-4 16.8 µM | MDA-N 43.9 µM | UACC-62 27.9 µM | UO-31 58.9 µM | SNB-75 42.3 µM | SK-MEL-2 12.4 µM | K562 22.8 µM | OVCAR-3 31.6 µM | PC-3 58.5 µM | SF-539 57.8 µM | OVCAR-5 33 µM | 786-0 20.8 µM | RXF 393 66.2 µM

COc1cccc(-c2cc(=O)c3ccccc3o2)c1N
inactive: HCC 2998 28.2 µM | EKVX 16.2 µM | MOLT-4 > 100 µM | UACC-257 36.6 µM | MDA-MB-435 23 µM | SF-295 > 66.1 µM | HCT-116 52 µM | OVCAR-4 84.3 µM | MDA-N 24.4 µM | UACC-62 5.27 µM | UO-31 36.3 µM | SNB-75 51.6 µM | SK-MEL-2 27.4 µM | K562 > 75.3 µM | OVCAR-3 > 100 µM | PC-3 > 23.6 µM | SF-539 63.5 µM | OVCAR-5 > 91 µM | 786-0 71 µM | RXF 393 45 µM
